The values below come from ChEMBL document CHEMBL1208714, “Dimeric cyclohexane-1,3-dione oximes inhibit wheat acetyl-CoA carboxylase and show anti-malarial activity” (Bioorg Med Chem Lett, 2010).

For experiment [1], the system named is Plasmodium falciparum. Nature of the experiment: Antimalarial activity against Plasmodium falciparum D10. It is filed as functional, organism-based.
The test system of experiment [2] is acetyl-CoA carboxylase (Triticum aestivum). The experiment in a line: Inhibition of wheat ACC at 20 uM.
Experiment [3] is described as follows: Inhibition of maize ACC. The arrangement: species or system Zea mays.

Calls of active or inactive are those of the source. No cut-off for these calls is given here.

Broadly, the IC50 is the concentration that inhibits the measured activity by half. In experiment [1], `CCO/N=C(\CC)C1=C(O)CC(c2c(C)cc(C)c(C(C)=O)c2C)CC1=O` (stereo not drawn) showed an IC50 of over 10 µM. As to `CCO/N=C(\CC)C1=C(O)CC(c2ccc(C3CC(=O)C(/C(CC)=N/OCC)=C(O)C3)cc2)CC1=O` (stereo not drawn), the IC50 in experiment [1] amounted to 6 µM. For the same compound, in experiment [2], the inhibition result was “Active”. On to `CCO/N=C(\C)C1=C(O)CC(c2ccc(C3CC(=O)C(/C(C)=N/OCC)=C(O)C3)cc2)CC1=O` (stereo not drawn), for which the IC50 in experiment [1] amounted to 12 µM. That is a double-digit micromolar value. On the same count and under the same terms, as for `CCC/C(=N\OCC)C1=C(O)CC(c2ccc(C3CC(=O)C(/C(CCC)=N/OCC)=C(O)C3)cc2)CC1=O` (stereo not drawn), the figure is 5 µM; as for `CCO/N=C(\CC)C1=C(O)CC(c2cccc(C3CC(=O)C(/C(CC)=N/OCC)=C(O)C3)c2)CC1=O` (stereo not drawn), 3 µM. `C=CCO/N=C(\CCC)C1=C(O)CC(c2cccc(C3CC(=O)C(/C(CCC)=N/OCC=C)=C(O)C3)c2)CC1=O` (stereo not drawn) displayed an IC50 in experiment [1] of 2.5 µM. The IC50 values of the last two compounds are within 1.5-fold of each other. Same read-out and setting: for `CCC/C(=N\OCc1ccccc1)C1=C(O)CC(c2cccc(C3CC(=O)C(/C(CCC)=N/OCc4ccccc4)=C(O)C3)c2)CC1=O` (stereo not drawn) the value was 12.5 µM; for `CCC/C(=N\OC(c1ccccc1)c1ccccc1)C1=C(O)CC(c2cccc(C3CC(=O)C(/C(CCC)=N/OC(c4ccccc4)c4ccccc4)=C(O)C3)c2)CC1=O` (stereo not drawn), 25 µM; for `CCC/C(=N\OCC)C1=C(O)CC(c2cccc(C3CC(=O)C(/C(CCC)=N/OCC)=C(O)C3)c2)CC1=O` (stereo not drawn), 4 µM.

With `CCCC(=O)c1c(C)cc(C)c(C2CC(=O)C(/C(CC)=N/OCC)=C(O)C2)c1C` (stereo not drawn) [BUTROXYDIM], the IC50 in experiment [1] is 10 µM; in experiment [3], 0.3 µM. The inhibition entry in experiment [2] is “Active”.

For the compound `CCSC(C)CC1CC(=O)C(/C(CC)=N/OC/C=C/Cl)=C(O)C1` (stereo not drawn) [CLETHODIM], the IC50 in experiment [1] is over 250 µM; in experiment [3], 0.02 µM. `CCOC(=O)C(C)Oc1ccc(Oc2cnc3cc(Cl)ccc3n2)cc1` (stereo not drawn) [QUIZALOFOP ETHYL ESTER]: the values for the 50% inhibitory concentration (IC50) in experiment [1] and in experiment [3] were over 100 µM and over 1 µM, respectively.

With `CC(Oc1ccc(Oc2cnc3cc(Cl)ccc3n2)cc1)C(=O)O` (stereo not drawn) [QUIZALOFOP], the IC50 in experiment [1] is over 100 µM; in experiment [3], 0.016 µM. On to `CC/C(=N\OC/C=C/Cl)C1=C(O)CC(C2CCOCC2)CC1=O` (stereo not drawn) [TEPRALOXYDIM], for which the IC50 in experiment [1] is over 100 µM; in experiment [3] it was 0.7 µM. For `CCO/N=C(\CC)C1=C(O)CC(c2c(C)cc(C)cc2C)CC1=O` (stereo not drawn) [TRALKOXYDIM], the results for the IC50 in experiment [1] and in experiment [3] were over 100 µM and 0.52 µM, respectively.
